Measured values: patent US20070161107A1, “Differentiation of human embryonic stem cells to cardiomyocytes” (priority 2003, published 2007)

What was measured:
[1] = test system: hES derived cardiomyocytes; test: Chronotropic response (beating rate) of dissociated hES-derived cardiomyocytes; assay type: cell-based, human; conditions: cultured dissociated hES cardiomyocytes
Text: (§1) FIG. 4. Action potentials and chronotropic responses. […] C.
Co-cultures were initiated as for END-2 cells.
(§2) Ventricular-like action potentials predominated (28 out of 33; table 2) but atrial-like (n=2), pacemaker-like (n=1) and vascular smooth muscle like-cells (n=2) were also found. In areas in which the cells were not beating but had adopted morphologies indistinguishable from beating areas (FIG. 1F), current injection was sufficient to induce repeated action potentials and sustained synchronous rhythmic contractions. Transcripts for MLC-2v were also detected by RTPCR in non-beating, myocyte-like areas (not shown); scoring beating muscle may thus underestimate the number of cardiomyocytes present in culture. […] The effects of phenylephrine, isoprenaline and carbachol on cultured dissociated hES cardiomyocytes were tested and compared to cultured human fetal ventricular cells (FIG. 4B). […] Similar effects were reported in mES derived cardiomyocytes 21 and mouse fetal cells (22).

[2] = test system: human fetal ventricular cells; test: Chronotropic response (beating rate) of cultured human fetal ventricular cells; assay type: cell-based
Text: as §1, §2

Structure (SMILES) | effect on beating rate [1] | effect on beating rate [2]
C[N+](C)(C)CCOC(N)=O [Carbachol] | decreased the beating rate | decreased the beating rate
CNC[C@H](O)c1cccc(O)c1 [phenylephrine] | increase | increase
CC(C)NCC(O)c1ccc(O)c(O)c1 (stereo not drawn) [isoprenaline] | increase | increase
